Read-outs that look alike come from different tables or passages of the source.
Legend:
human p38β = molecular target: T1, human p38β (Homo sapiens, UniProt Q15759); experiment: KINOMEscan competition binding assay (DiscoverX), p38β; conditions: read-out: Kd (mean ± s.d.)
T1 construct: purchased DiscoverX
Source text: (§1) The KINOMEscan® platform (DiscoverX) was used, which uses a novel and proprietary active site-directed competition binding assay to quantitatively measure the interactions between human p38 isoforms and the target compound.

[1] = test system: IL-1β-induced neutrophil influx and IL-6 in BALF; experiment: IL-1β-induced neutrophilia and IL-6 accumulation in BALF of rats; assay type: in vivo; conditions: for ED50: Rattus norvegicus, Neutrophil
Procedure: IL-1β is a potent proinflammatory agent that markedly induces lung neutrophilia when administered intratracheally in rats, and p38α MAPK is involved in IL-1β signaling in lung cells ([Laporte et al., 2000]). The dose–response curve and anti-inflammatory duration of action studies were carried out by delivering CHF6297 intratracheally through the DP-4M PennCentury insufflator as micronized dry powder (blended with lactose) at the doses of 0.1, 0.35, and 1 mg/kg, 1 h or 24 h before IL-1β challenge. Four hours after IL-1β challenge, BALF was collected for cell counting and IL-6 quantification.
For the experimental studies performed with IL-1β challenge, the first aliquot of BALF was centrifuged separately: the resulting supernatant was frozen at −80°C for IL-6 ELISA analysis.
Frozen cell-free BALFs were analyzed using an ELISA kit purchased from R&D Systems (Rat IL-6 ELISA Kit; Cat. No. SR6000B, Lot. 307537), according to the manufacturer’s instructions.

human p38γ = molecular target: T2, human p38γ (Homo sapiens, UniProt P53778); experiment: KINOMEscan competition binding assay (DiscoverX), p38γ; conditions: read-out: Kd (mean ± s.d.)
T2 construct: GST; purchased Invitrogen
T2 sequence (P53778 1-367): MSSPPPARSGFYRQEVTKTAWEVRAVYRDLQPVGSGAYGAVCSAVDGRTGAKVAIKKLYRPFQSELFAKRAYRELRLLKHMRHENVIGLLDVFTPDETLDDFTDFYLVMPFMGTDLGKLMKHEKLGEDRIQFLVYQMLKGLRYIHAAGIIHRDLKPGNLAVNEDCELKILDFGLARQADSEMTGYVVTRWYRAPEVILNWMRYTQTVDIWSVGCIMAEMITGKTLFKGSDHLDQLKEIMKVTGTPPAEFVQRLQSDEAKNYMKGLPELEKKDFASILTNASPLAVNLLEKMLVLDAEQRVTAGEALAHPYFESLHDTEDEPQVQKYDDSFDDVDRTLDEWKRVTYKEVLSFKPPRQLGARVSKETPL
Source text: as §1

[2] = test system: i.v. LPS-induced TNF-α in blood; experiment: Intravenous LPS-induced TNF-α release in rat blood; assay type: in vivo, rats; conditions: 0.3 mg/kg lactose-blended dry powder via inhalation, 2 h before i.v. LPS (0.3 mg/kg)
BEAS-2B = experiment: TNF-α-evoked IL-8 release; assay type: cell-based, human; conditions: TNF-α 1 ng/mL; compared with the CSE-evoked assay
[3] = Inhalation pharmacokinetics in rats; assay type: in vivo, male Wistar rats; conditions: for Lung Cmax: 30-min nose-only inhalation; for Plasma Tmax: IAD: immediately after dosing; for Lung Tmax: IAD: immediately after dosing (5 min after end of exposure); for half-life: lung, read-out: Lung t1/2 (converted); for Cmax / AUC(0-t): plasma; for AUC(0-t): read-out: Plasma AUClast
Procedure: Inhalation pharmacokinetics (PK) of CHF6297 as micronised dry powder blended with lactose 20% w/w was investigated in male Wistar rats at 2 dose levels (0.1 and 1 mg/kg) using the nose-only inhalation delivery system (Figure 8). For each PK study, 21 rats were placed in suitable plastic restrainers and connected to the inhalation tower. Inhalation system parameters were set to achieve a nominal dose of 0.1 mg/kg and 1 mg/kg in 30 min of exposure. The particle size and actual dose are given in Supplementary Material (Table 2). At the end of the inhalation period, the animals were returned to their cages. […] Then, lung samples were immediately excised, externally washed with cold saline, accurately weighed, homogenized using a temperature-controlled Precellys homogenizer (Bertin Technologies, France), and stored at −80 °C until analysis.
Plasma and lung samples were analyzed by using an HPLC-MS/MS system, consisting of a 4000 QTRAP mass spectrometer (AB Sciex LLC, Framingham, MA, United States) with an electrospray ionization (ESI) source, coupled to an Agilent 1100 HPLC (Agilent Technologies, Santa Clara, CA, United States). Analyte separation was performed using a Gemini C18 column (Phenomenex Inc., Torrance, CA, United States) and water with 0.1% v/v AcOH in the gradient with acetonitrile with 0.1% v/v AcOH as eluents. Sample preparation was performed by protein precipitation using preassembled filtration devices (Mini-UniPrep Syringeless Filters, 0.45 µm PTFE, Whatman, GE Healthcare, Buckinghamshire, United Kingdom). Aliquots of 50 μL of the sample (plasma or homogenate) were transferred to the bottom part of the device, spiked with 10 μL of the appropriate internal standard solution, and 150 μL of acetonitrile was added. The calibration and quality control samples were prepared by adding 10 µL of the CHF6297 working standard solution in acetonitrile to 50 µL of the blank matrix. After vortex mixing, the obtained mixture was filtered by manual compression of the device, and the filtered solution was diluted with 100 μL of water. The Mini-UniPrep devices were directly placed in the autosampler rack of the HPLC system. Pharmacokinetic evaluation and parameter determination (Cmax, Tmax, AUClast, and t1/2) were performed with Phoenix 64 software (Certara, New Jersey, United States) using non-compartmental analysis. Since the actual dose was within ±5% of the nominal one, the nominal dose was used for PK calculation.

[4] = 0.35 mg/kg i.t., 24 h before IL-1β
[5] = 1 mg/kg i.t., 24 h before IL-1β
[6] = male, Wistar, rat, inhaled or intranasal, 0.1 mg/kg
[7] = male, Wistar, rat, inhaled or intranasal, 1.0 mg/kg

T1 sequence (Q15759 whole entry): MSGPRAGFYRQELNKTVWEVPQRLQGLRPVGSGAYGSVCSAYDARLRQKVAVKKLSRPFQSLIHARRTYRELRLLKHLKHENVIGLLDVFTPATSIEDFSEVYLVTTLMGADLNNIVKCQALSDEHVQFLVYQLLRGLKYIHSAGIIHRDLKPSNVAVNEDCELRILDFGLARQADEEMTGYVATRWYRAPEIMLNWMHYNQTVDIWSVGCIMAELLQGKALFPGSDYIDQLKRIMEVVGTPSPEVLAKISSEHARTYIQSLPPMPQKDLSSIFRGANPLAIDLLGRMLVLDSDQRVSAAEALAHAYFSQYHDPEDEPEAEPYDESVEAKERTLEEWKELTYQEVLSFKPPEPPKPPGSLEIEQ

## C[C@H]1CCCCN1c1nnc2ccc(O[C@@H]3CC[C@H](NC(=O)Nc4cc(C(C)(C)C)nn4-c4cnn(CCN(C)C)c4)c4ccccc43)cn12 [CHF6297]
Human p38β
  Kd: 1.11 ± 0.6 nM
[1]; 0.1 mg/kg i.t., 1 h before IL-1β
  IL-6 concentration in BAL fluid: 791 ± 131 pg/mL
[1]; 0.35 mg/kg i.t., 1 h before IL-1β
  IL-6 concentration in BAL fluid: 302 ± 58.34 pg/mL
[1]; [4]
  IL-6 concentration in BAL fluid: 1,101 ± 253 pg/mL
  neutrophils in BALF: 5.5 × 10^6 ± 814 neutrophils
[1]; 1 mg/kg i.t. dry powder, 1 h before IL-1β
  neutrophils in BALF: 2.3 × 10^6 ± 234 neutrophils
[1]; 1 mg/kg i.t., 1 h before IL-1β
  IL-6 concentration in BAL fluid: 404 ± 108 pg/mL
[1]; [5]
  IL-6 concentration in BAL fluid: 337 ± 84 pg/mL
  neutrophils in BALF: 2.98 × 10^6 ± 62 neutrophils
[1]; i.t. dry powder, 1 h before IL-1β, read-out: ED50, IL-1β-induced neutrophil influx
  ED50: 0.22 mg/kg
[1]; i.t., IL-1β challenge, read-out: ED50, increase in IL-6 levels in BALF
  ED50: 0.82 mg/kg
Human p38γ
  Kd: > 1000 nM
[2]
  effect on TNF-α levels in blood: no significant inhibition of TNF-α levels
BEAS-2B
  potency against IL-8 release evoked by TNF-α: comparable potency
[3]; 0.1 mg/kg
  Lung AUClast: 42,097 h*ng/g
  Lung Cmax: 7,187 ng/g
  Plasma Tmax: IAD
  Lung Tmax: IAD
[3]; 1.0 mg/kg
  Lung Cmax: 54,000 ng/g
  Plasma Tmax: IAD
  Lung Tmax: IAD
[3]; [6]
  half-life: 10.2 h
  Cmax: 2.77 ng/mL
  AUC(0-t): 7.32 ng·h/mL
[3]; [7]
  half-life: 10.2 h
  Cmax: 20.6 ng/mL
  AUC(0-t): 60.1 ng·h/mL
[3]; male, Wistar, rat, inhaled, 0.1 mg/kg
  half-life: 10 h
[3]; male, Wistar, rat, inhaled, 1.0 mg/kg
  half-life: 10 h
[3]; male, Wistar, rat, lung/plasma, inhaled, at the two dose levels (0.1 and 1 mg/kg), read-out: lung/plasma ratio (AUClast lung / AUClast plasma)
  Kp: ~6000

Source: publication PMC10973839, “CHF6297: a novel potent and selective p38 MAPK inhibitor with robust anti-inflammatory activity and suitable for inhaled pulmonary administration as dry powder” (Frontiers in Pharmacology, 2024)
